Results on 15 compounds are retold here after ChEMBL document CHEMBL5244240, “MmpL3 inhibitors as antituberculosis drugs” (Eur J Med Chem, 2020).

SMILES strings stand for the structures. Values after ≈ are worked out from the molar mass of the structure shown.

The term MIC denotes the lowest concentration that inhibits growth of the organism. A low value points to a more susceptible organism. What is called Tmax is the time at which the peak concentration occurs. In general, CL/F refers to the apparent clearance, not corrected for the fraction that reaches the circulation. The IC90 is the point of the concentration-response curve where the effect stands at 90%. Higher therefore signals weaker potency. One may read the MIC99 as the lowest concentration that inhibits either 99% of growth or 99% of the strains tested, depending on the study.

In data set [1] the test system is Mycobacterium tuberculosis. Briefly: Antitubercular activity against Mycobacterium tuberculosis H37Rv. It is filed as functional.
The nature of data set [2]: Clearance in mouse microsomes. It is filed as ADME, Microsome.
Data set [3] relates to Mycobacteroides abscessus. Briefly: Antimycobacterial activity against Mycobacterium abscessus smooth variant. It is filed as functional.
Data set [4] relates to Mycobacteroides abscessus. The experiment in a line: Antimycobacterial activity against Mycobacterium abscessus rough variant. It is filed as functional.
Data set [5] in a line: Tmax in mouse at 25 mg/kg, po. It is filed as ADME, organism-based. To be noted: in vivo.
The nature of data set [6]: Volume of distribution at steady state in mouse at 25 mg/kg, po. It counts as ADME, organism-based. The conditions noted are these: in vivo.
Data set [7] in a line: Clearance in mouse at 25 mg/kg, po. The conditions noted are these: in vivo. It is filed as ADME, organism-based.
Data set [8] can be described thus: Elimination half life in mouse at 25 mg/kg, po. It counts as ADME, organism-based. To be noted: in vivo, read-out: beta t1/2 (converted).
Data set [9] relates to Mycobacterium tuberculosis. Briefly: Antitubercular activity against replicating Mycobacterium tuberculosis bacilli. It is filed as functional.
Data set [10] has as its system Mycobacterium tuberculosis. The experiment in a line: Antitubercular activity against non replicating Mycobacterium tuberculosis bacilli by low oxygen recovery assay. It is filed as functional.
Data set [11] concerns Mycobacteroides abscessus. The experiment in a line: Antitubercular activity against Mycobacterium abscessus CIP104536. It counts as functional.
Data set [12] concerns Mycobacterium tuberculosis. The experiment in a line: Antitubercular activity against Mycobacterium tuberculosis H37Rv infected in mouse assessed as log reduction in CFU in lung at 100 mg/kg. It counts as functional.
The test system of data set [13] is Mycobacterium tuberculosis. The experiment in a line: Antitubercular activity against Mycobacterium tuberculosis H37Rv infected in mouse assessed as log reduction in CFU in lung at 50 mg/kg. It counts as functional.
Data set [14] deals with Mycobacterium tuberculosis. The experiment in a line: Antitubercular activity against Mycobacterium tuberculosis infected in mouse assessed as log reduction in bacterial burden in lung at 100 mg/kg. It counts as functional.
In data set [15] the test system is Mycobacterium tuberculosis. The experiment in a line: Antitubercular activity against Mycobacterium tuberculosis infected in mouse assessed as log reduction in bacterial burden in lung at 300 mg/kg. It counts as functional.
Data set [16] concerns Mycobacterium tuberculosis. Briefly: Antitubercular activity against Mycobacterium tuberculosis […]. It counts as functional.
Data set [17] concerns Mycobacterium tuberculosis. The experiment in a line: Antitubercular activity against Mycobacterium tuberculosis H37Rv infected in mouse macrophage. It is filed as functional.
Data set [18] concerns Mycobacterium tuberculosis. The experiment in a line: Antitubercular activity against replicating Mycobacterium tuberculosis H37Rv. It counts as functional.
Data set [19] has as its system Mycobacterium tuberculosis. Briefly: Bactericidal activity against replicating Mycobacterium tuberculosis H37Rv. It is filed as functional.
Data set [20] concerns Mycobacterium tuberculosis. The experiment in a line: Antitubercular activity against non-replicating Mycobacterium tuberculosis H37Rv. It is filed as functional.

With `COc1ccc(-c2cc(CN3CCSCC3)c(C)n2-c2ccc(F)cc2)cc1`, the MIC in [1] amounted to 0.2 µM. In addition, in [2], the CLH was determined as 18.76 mL/min/g.
Consider `Cc1ccccc1CN1CCC(O)(c2ccc(Cl)c(C(F)(F)F)c2)CC1`, for which the MIC in data set [3] and in data set [4] was 0.32 µM (≈ 0.123 µg/mL) throughout.
With `c1cc2c(s1)CCOC21CCN(Cc2ccc3c(c2)OCCO3)CC1`, in data set [1], the MIC was determined as 0.3 µM. Also, the CLH in [2] is over 30 mL/min/g.
With `CC1(C)CCC(NC(=O)c2cc3c(F)cc(F)cc3[nH]2)CC1`, in data set [5], the Tmax worked out at 1.5 h. The compound also showed a Vdss in data set [6] of 2.24 L/kg. The same compound had a CL/F in data set [7] of 18.7 mL/min/kg. The half-life in data set [8] was 4.47 h.
The like results for `CC1(C)CCC(NC(=O)c2cc3c(Cl)cc(Cl)cc3[nH]2)CC1` were, in that order, 1.5 h, 4.11 L/kg, 18.1 mL/min/kg and 5.25 h.
Take `Cc1c(CN2CCN(C)CC2)cc(-c2ccc(Cl)cc2)n1-c1ccc(Cl)cc1`: the MIC in data set [9] is 5 µM (≈ 2.07 µg/mL); in data set [10] it was 18.5 µM (≈ 7.67 µg/mL).
For the compound `Cc1cc2nc(CCC3CCCCC3)[nH]c2cc1C`, the minimal inhibitory concentration (MIC) in data set [1] was 0.75 µg/mL; in data set [11], 0.125 µg/mL (≈ 0.488 µM).
In the case of `CCCn1cnc2cc(NCc3ccc(Cl)cc3Cl)ccc21`, the IC90 in data set [1] came to 16 µM.
In data set [1], `Cc1c(CN2CCOCC2)cc(-c2ccc(C(C)C)cc2)n1-c1ccc(F)cc1` displayed a minimal inhibitory concentration (MIC) of 0.12 µM. This compound yielded a CLH in data set [2] of 1.4 mL/min/g.
The compound `FC(F)(F)Oc1ccc(Oc2ccc(CN3CCC4(CC3)OCCc3sccc34)cc2)cc1` displayed a minimum inhibitory concentration (MIC) in [1] of 0.06 µM. Moreover, the CLH in data set [2] came to 1.2 mL/min/g. Further, the “log(activity)” value in [12] was 2.7; in data set [13], 2.3.
The compound `CCc1ccc([C@H]2C[C@@H](C(F)(F)F)n3ncc(C(=O)NCc4ccc5c(c4)OCO5)c3N2)cc1` yielded a minimum inhibitory concentration (MIC) in data set [1] of 0.16 µM. In addition, the “log(activity)” value was determined as 1.5 in [14] and 2.2 in data set [15].
Take `O=C(NCCc1ccc(Cl)cc1)C1(c2cccs2)CCCCC1`: the MIC99 in data set [16] turned out to be 19.3 µM (≈ 6.71 µg/mL).
With `CCc1ccc([C@H]2C[C@@H](C(F)(F)F)n3ncc(C(=O)NCc4ccc(OC)cc4)c3N2)cc1`, the MIC in data set [1] was determined as 0.3 µM. In [17], this compound yielded an MIC80 of 0.16 µM (≈ 0.0734 µg/mL).
With `FC(F)(F)Oc1ccc(Oc2ccc(CNCCNC3C4CC5CC(C4)CC3C5)cc2)cc1` (stereo not given), the MIC99 in data set [18] turned out to be 2.5 µM (≈ 1.15 µg/mL). In data set [19], this compound yielded an MBC99 of 5 µM (≈ 2.3 µg/mL).
Turning to `CC(C)=CCC/C(C)=C\CNCCNC1C2CC3CC(C2)CC1C3` (stereo not given), the MIC in data set [18] and in [20] was 0.7 µM (≈ 0.231 µg/mL) throughout.
